Test results as given in JP2007509054A, “血管健康を促進するシリルフェノール” (Amylin Pharmaceuticals LLC, priority 2003, dated 2005).

Experiments:
serum lipids (血清脂質) = experiment: Ex vivo copper-induced lipid peroxidation of serum lipids (lag phase), rabbits fed compound for 70 days; format: in vivo; settings: rabbit, Fig. 1
[1] = Serum antioxidant activity in rats fed AC3056 in the diet; format: in vivo, rat; settings: rats fed a diet containing AC3056
[2] = Serum concentration in rats fed AC3056 in the diet; format: in vivo, rat; settings: rats fed a diet containing AC3056
carotid artery (頚動脈) = experiment: Mechanical carotid injury model in ApoE-/- mice: quantitative morphometry; format: in vivo, mouse; settings: ApoE-/- male mice, high-fat diet with 1.25% cholesterol, treated 18 h before and daily for 28 days after injury, Fig. 7
[3] = test system: leukocyte recruitment (白血球動員); experiment: Mechanical carotid injury model in ApoE-/- mice: CD45-positive cells / leukocyte recruitment; format: in vivo, mouse; settings: ApoE-/- male mice, treated 18 h before and daily for 28 days after injury, Fig. 8
VCAM-1 (VCAM−1) [4] = experiment: IL-4 induced VCAM-1 expression in human coronary artery smooth muscle cells (CASMC); format: cell-based; settings: IL-4 100 nmol/L, Fig. 2
VCAM-1 (VCAM−1) [5] = experiment: Cytokine (TNF-α) induced VCAM-1 expression in human umbilical vein endothelial cells (HUVEC); format: cell-based; settings: Fig. 2

COc1ccc([Si](C)(C)COc2cc(C(C)(C)C)c(O)c(C(C)(C)C)c2)cc1 [AC3056]
increase in lag phase versus serum concentration (serum lipids (血清脂質)): 血清濃度に比例する | antioxidant activity in serum [1]: 血清中の抗酸化活性の増加 | mean serum concentration [2]: 17700 ng/mL | intima/media ratio (carotid artery (頚動脈)): 内膜/中膜の比が低下する | mean lumen thickness (carotid artery (頚動脈)): 平均の内腔厚みが増加する | mean neointimal thickness (carotid artery (頚動脈)): 平均の新血管内膜の厚みが低下する | leukocyte recruitment to the neointimal space after vascular injury (CD45-positive cells) [3]: 白血球動員を阻害する

CC(C)(Sc1cc(C(C)(C)C)c(O)c(C(C)(C)C)c1)Sc1cc(C(C)(C)C)c(O)c(C(C)(C)C)c1 [プロブコール]
inhibition of IL-4 induced VCAM-1 expression (VCAM-1 (VCAM−1) [4]): 本発明の化合物より一般的に有効ではない | inhibition of cytokine-induced (TNF-α) VCAM-1 expression (VCAM-1 (VCAM−1) [5]): 同様の濃度範囲にて有効ではない
